Results: paper PMC7076013 (Scientific Reports, 2020)

Assays:
[1] = system: 518A2, human melanoma; assay: CV (crystal violet) cell viability, 518A2; format: cell-based; settings: for IC50: 48 h; for Selectivity index 518A2: IC50 macrophages / IC50 cancer
Description: (§1) Both melanoma and colon cancer are tumor types tightly connected with inflammation, while the expression of COX-2 in the selected cell lines was highly variable. Since a lot of discrepancies were found in the literature concerning the expression of this enzyme[5],[48]–[53], both COX-1 and COX-2 expression was analyzed by Western blot. […] The cells were treated with a wide range of doses of 4a–c, 5, and 6 for 48 h and cell viability was determined by MTT (3-(4,5-dimethylthiazol-2-yl)-2,5-diphenyltetrazolium bromide) and CV (crystal violet) assays. The obtained IC50 values were similar for both assays (Table 1).
(§2) Reagents were obtained from Sigma (St. Louis, MO) unless indicated otherwise. Annexin V - FITC (AnnV) was acquired from Biotium (Hayward, CA) and Apostat from R&D (R&D S ystems, Minneapolis, MN USA). […] After being detached b y tr ypsinization, cells were seeded in defined number as follows: 2.5 × 10^3 cells/well in 96-well plates for viability assessment and 2 × 10^4 cells/well in 24-well plates for flow cytometry. Peritoneal resident […]
(§3) for Biolo gical Research “Siniša Stanković” b y peritoneal lav age with an ice- cold phosphate buffer solution (PBS). The handling of animals and protocol for obtaining cells is in agreement with the rules of the European Union and approved by the Institutional Animal Care and Use Committee at IBISS (02- 09/1 6). Cells were counted and seeded in 96-well plates and incubat ed overnight. Before treatment, non- adherent cells were removed. Compounds 4a- c, 5 and 6 were dissolved in DMSO and stored at −20 °C for a m onth. Working solutions were freshl y prepared in 10% FCS-RPMI-1640. Controls were treated with culture medium containing the equivalent […]
(§4) 3.2. Cell viability tests.
(§5) The number of viable cel ls in culture was estimated by the MTT (3-(4,5- dimethylthiazol- 2-yl ) - 2,5- diphenyltetrazolium bromide) and CV (crystal violet) tests. Cells were incubated in the presence of compounds 4a- c, 5 and 6 for 48 h, then the viability was measured as described.4 […]
(§6) The results were ex pressed as a p er centage of a v alue obtained for the untr eated control cells that was arbitrarily set to be 100%. A non- linear regression analysis of obtained results was done b y using Gr aphPad Prism software to calculat e IC50 values. […]

[2] = system: A375, human melanoma; assay: MTT cell viability, A375; format: cell-based; settings: 48 h
Description: as §1
as §2, with “cytometry.” for “cytometry. Peritoneal resident”
(§7) Committee at IBISS (02- 09/1 6). Cells were counted and seeded in 96-well plates and incubat ed overnight. Before treatment, non- adherent cells were removed. Compounds 4a- c, 5 and 6 were dissolved in DMSO and stored at −20 °C for a m onth. Working solutions were freshl y prepared in 10% FCS-RPMI-1640. Controls were treated with culture medium containing the equivalent […]
as §4, §5, §6

[3] = system: SW620, human colon carcinoma; assay: MTT cell viability, SW620; format: cell-based; settings: 48 h
Description: as §1
(§8) Reagents were obtained from Sigma (St. Louis, MO) unless indicated otherwise. […]
(§9) S ystems, Minneapolis, MN USA). […] After being detached b y tr ypsinization, cells were seeded in defined number as follows: 2.5 × 10^3 cells/well in 96-well plates for viability assessment and 2 × 10^4 cells/well in 24-well plates for flow cytometry. […]
(§10) Before treatment, non- adherent cells were removed. Compounds 4a- c, 5 and 6 were dissolved in DMSO and stored at −20 °C for a m onth. Working solutions were freshl y prepared in 10% FCS-RPMI-1640. Controls were treated with culture medium containing the equivalent […]
as §4, §5, §6

[4] = system: SW480, human colon carcinoma; assay: MTT cell viability, SW480; format: cell-based; settings: 48 h
Description: as §1, §8, §9, §10, §4, §5, §6

[5] = system: CT26CL25, mouse colon carcinoma; assay: CV (crystal violet) cell viability, CT26CL25; format: cell-based; settings: for IC50: 48 h; for Selectivity index CT26CL25: IC50 macrophages / IC50 cancer
Description: as §1, §2, §3, §4, §5, §6

[6] = system: peritoneal resident macrophages; assay: CV cytotoxicity for isolated macrophages; format: cell-based, C57BL/6 mice; settings: crystal violet (CV) test
Description: as §2, §3, §4, §5, §6
14 Ligand molecules and one […]
protocol published earlier.16
Cell line Selectivity index

[7] = system: 518A2, human melanoma; assay: MTT cell viability, 518A2; format: cell-based; settings: 48 h
Description: as §1
as §2, with “cytometry.” for “cytometry. Peritoneal resident”
as §7, §4, §5, §6

[8] = system: CT26CL25, mouse colon carcinoma; assay: MTT cell viability, CT26CL25; format: cell-based; settings: 48 h
Description: as §1
as §2, with “cytometry.” for “cytometry. Peritoneal resident”
as §7, §4, §5, §6

[9] = system: HCT116, human colon carcinoma; assay: CV (crystal violet) cell viability, HCT116; format: cell-based; settings: for IC50: 48 h; for Selectivity index HCT116: IC50 macrophages / IC50 cancer
Description: as §1, §2, §3, §4, §5, §6

[10] = system: B16, mouse solid melanoma; assay: MTT cell viability, B16; format: cell-based; settings: 48 h
Description: as §1
as §2, with “cytometry.” for “cytometry. Peritoneal resident”
as §7, §4, §5, §6

[11] = system: B16F10, mouse metastatic melanoma; assay: MTT cell viability, B16F10; format: cell-based; settings: 48 h
Description: as §1
as §2, with “cytometry.” for “cytometry. Peritoneal resident”
as §7, §4, §5, §6

[12] = system: SW480, human colon carcinoma; assay: CV (crystal violet) cell viability, SW480; format: cell-based; settings: for IC50: 48 h; for Selectivity index SW480: IC50 macrophages / IC50 cancer
Description: as §1, §8
(§11) S ystems, Minneapolis, MN USA). […] After being detached b y tr ypsinization, cells were seeded in defined number as follows: 2.5 × 10^3 cells/well in 96-well plates for viability assessment and 2 × 10^4 cells/well in 24-well plates for flow cytometry. Peritoneal resident […]
as §3, §4, §5, §6

[13] = system: SW620, human colon carcinoma; assay: CV (crystal violet) cell viability, SW620; format: cell-based; settings: for IC50: 48 h; for Selectivity index SW620: IC50 macrophages / IC50 cancer
Description: as §1, §8, §11, §3, §4, §5, §6

[14] = system: B16, mouse solid melanoma; assay: CV (crystal violet) cell viability, B16; format: cell-based; settings: for IC50: 48 h; for Selectivity index B16: IC50 macrophages / IC50 cancer
Description: as §1, §2, §3, §4, §5, §6

[15] = system: HCT116, human colon carcinoma; assay: MTT cell viability, HCT116; format: cell-based; settings: 48 h
Description: as §1
as §2, with “cytometry.” for “cytometry. Peritoneal resident”
as §7, §4, §5, §6

Row | Substance | IC50 [1] | Selectivity index 518A2 [1] | IC50 [2] | IC50 [3] | IC50 [4] | IC50 [5] | Selectivity index CT26CL25 [5] | IC50 [6] | IC50 [7] | IC50 [8] | IC50 [9] | Selectivity index HCT116 [9] | IC50 [10] | IC50 [11] | IC50 [12] | Selectivity index SW480 [12] | IC50 [13] | Selectivity index SW620 [13] | IC50 [14] | IC50 [15] | further results
1 | 4-[4-(methylsulfonyl)phenyl]-3-(1,2-dicarba-closo-dodecaboranyl)furan-2(5H)-one [Compound 4b] | 14.8 ± 0.92 µM | 4.5 | 16.9 ± 1.35 µM | 19.2 ± 0.78 µM | 42.5 µM | 36.1 ± 1.25 µM | 1.8 | 65.7 ± 5.75 µM | 13.8 ± 0.21 µM | 38.1 ± 0.9 µM | 35.9 µM | 1.8 | 18 ± 1.71 µM | 27.3 ± 2.82 µM | 35.9 µM | 1.8 | 21.8 ± 0.64 µM | 3.0 | 22.2 ± 0.65 µM | 42.5 ± 1.42 µM | Selectivity index B16 [14]: 3.0
2 | 4-[4-(hydroxymethyl)phenyl]-3-(1,2-dicarba-closo-dodecaboranyl)furan-2(5H)-one [Compound 4c] | 41.2 ± 2.12 µM | 1.6 | 17.9 ± 1.26 µM | 35.7 ± 0.85 µM | 24.2 ± 1.05 µM | 29.2 ± 2.86 µM | 2.3 | 66.2 ± 1.91 µM | 36.35 ± 0.21 µM | 28.4 ± 2.46 µM | 19.2 ± 1.46 µM | 3.4 | 26.1 ± 2.49 µM | 28 ± 2.62 µM | 26.8 ± 2.81 µM | 2.5 | 44.4 ± 1.77 µM | 1.5 | 30.8 ± 3.22 µM | 22.2 ± 0.95 µM | Selectivity index B16 [14]: 2.1
3 | 4-[4-(methylnitrooxy)phenyl]-3-(1,2-dicarba-closo-dodecaboranyl)furan-2(5 H)-one [Compound 5] | 5.5 ± 0.57 µM | 6.7 | 4.25 ± 1.65 µM | 10.5 ± 0.14 µM | 16.6 ± 1.01 µM | 29.4 ± 2.12 µM | 1.3 | 37.1 ± 1.73 µM | 5.15 ± 0.64 µM | 31.4 ± 3.27 µM | 9.95 ± 0.95 µM | 3.7 | 10.1 ± 0.4 µM | 7.95 ± 3.06 µM | 8.6 ± 0.21 µM | 4.3 | 10.8 ± 0.21 µM | 3.5 | 11.5 ± 1.05 µM | 8.9 µM | Selectivity index B16 [14]: 3.2
4 | R,S-7-(2-oxo-4-(4-sulfamoylphenyl)-2,5-dihydrofuran-3-yl)-7,8-dicarba-nido-dodeca-hydroundecaborate(–1) sodium [Compound 6] | 49.7 ± 0.42 µM | – | > 50 µM | > 50 µM | > 50 µM | > 50 µM | – | – | 36.9 ± 0.49 µM | > 50 µM | > 50 µM | – | > 50 µM | > 50 µM | > 50 µM | – | > 50 µM | – | > 50 µM | > 50 µM | –
5 | 4-phenyl-3-(1,2-dicarba-closo-dodecaboranyl)furan-2(5 H)-one [Compound 4a] | 21.4 ± 0.42 µM | 2.3 | 20.2 ± 1.26 µM | 24.7 ± 0.42 µM | 22.8 ± 0.7 µM | 37.2 ± 2.21 µM | 1.3 | 48.8 ± 1.2 µM | 18.9 ± 1.63 µM | 42.6 ± 3.17 µM | 12.8 ± 0.5 µM | 3.8 | 30.8 ± 2.81 µM | 24.3 ± 2.01 µM | 19 ± 1.91 µM | 2.6 | 24.8 ± 0.35 µM | 2.0 | 30.6 ± 3.86 µM | 13.5 µM | Selectivity index B16 [14]: 1.6
